Results taken from PubChem BioAssay (NCI).
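Results reflect a 48-hour exposure of cells in 96-well plates to compound at five concentrations. The concentration for full growth arrest is given as TGI.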

How the values were obtained:
Assay in all cases: growth of human tumour cells (NCI), 48 h
[1] = system: SF-268 CNS
[2] = system: IGROV1 ovarian
[3] = system: UO-31 renal
[4] = system: DU-145 prostate
[5] = system: SR leukemia
[6] = system: SW-620 colon
[7] = system: HT29 colon
[8] = system: OVCAR-3 ovarian
[9] = system: MOLT-4 leukemia
[10] = system: OVCAR-4 ovarian
[11] = system: LOX IMVI melanoma
[12] = system: HOP-62 NSCLC
[13] = system: SNB-19 CNS
[14] = system: TK-10 renal
[15] = system: RXF 393 renal
[16] = system: A498 renal
[17] = system: HCC-2998 colon
[18] = system: BT-549 breast
[19] = system: HOP-92 NSCLC
[20] = system: SK-OV-3 ovarian
[21] = system: ACHN renal
[22] = system: K-562 leukemia
[23] = system: PC-3 prostate
[24] = system: M14 melanoma
[25] = system: UACC-62 melanoma
[26] = system: A549 NSCLC
[27] = system: RPMI-8226 leukemia
[28] = system: UACC-257 melanoma
[29] = system: OVCAR-8 ovarian
[30] = system: MDA-MB-435
[31] = system: CCRF-CEM leukemia
[32] = system: SF-539 CNS
[33] = system: HCT-116 colon
[34] = system: T-47D breast
[35] = system: NCI/ADR-RES ovarian
[36] = system: EKVX NSCLC
[37] = system: MCF7 breast
[38] = system: COLO 205 colon
[39] = system: HS 578T breast
[40] = system: SK-MEL-5 melanoma
[41] = system: MDA-MB-231 breast
[42] = system: HCT-15 colon
[43] = system: NCI-H460 lung
[44] = system: HL-60(TB) leukemia
[45] = system: NCI-H522 lung
[46] = system: KM12 colon
[47] = system: SN12C renal
[48] = system: SK-MEL-28 melanoma
[49] = system: CAKI-1 renal
[50] = system: NCI-H226 lung
[51] = system: 786-0 renal
[52] = system: MDA-N
[53] = system: NCI-H23 lung
[54] = system: MALME-3M melanoma
[55] = system: SK-MEL-2 melanoma
[56] = system: SF-295 CNS
[57] = system: U251 CNS
[58] = system: SNB-75 CNS
[59] = system: OVCAR-5 ovarian

Measured: TGI

O=C(C(Cl)=C(N1CCOCC1)N1CCOCC1)C(Cl)Cl
not listed: [55] | [56] | [57] | [58] | [59]
> 100 µM: all other assays above

O=C(O)[C@H](c1ccccc1)[C@@H](C(=O)O)c1ccccc1
not listed: [31]
> 100 µM: all other assays above
